Experimental data from PubChem BioAssay (NCI).
Values joined by “and” are separate entries in the source; they are usually repeats but may differ in a detail not shown here. Equal entries are not always repeated.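 Dose response: 5 concentrations. Exposure: 48 h. Format: 96-well plates. Endpoint: linear interpolation; highest concentration if not reached. GI50 is the concentration that inhibits growth by half. Definition used: TGI = concentration required for complete inhibition of growth.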

What was measured:
Test in all cases: inhibition of tumour cell growth, NCI panel, 48 h
[1] = test system: RPMI-8226 leukemia
[2] = test system: SW-620 colon
[3] = test system: UACC-62 melanoma
[4] = test system: A498 renal
[5] = test system: HOP-92 NSCLC
[6] = test system: EKVX NSCLC
[7] = test system: NCI/ADR-RES ovarian
[8] = test system: HT29 colon
[9] = test system: T-47D breast
[10] = test system: MDA-MB-231 breast

Structure (SMILES)	GI50 [1] [µM]	TGI [1]	GI50 [2] [µM]	TGI [2] [µM]	GI50 [3] [µM]	TGI [3]	GI50 [4]	TGI [4]	GI50 [5] [µM]	TGI [5]	GI50 [6] [µM]	TGI [6] [µM]	GI50 [7] [µM]	TGI [7]	GI50 [8] [µM]	TGI [8] [µM]	GI50 [9] [µM]	TGI [9]	GI50 [10] [µM]	TGI [10]
O=S(=O)(NCCNc1nccc(-c2c(-c3ccc(F)c(O)c3)nc3sccn23)n1)c1ccc(F)cc1	1.78	4.24 µM	5.22	30.4	0.587	9.82 µM	5.72 µM	18.2 µM	1.3	6.86 µM	5.42	60.6	8.5	> 100 µM	4.19	31.1	5.02	28 µM	2.23	> 100 µM
COc1ccc(-c2cs/c(=N\N=C\c3ccc(O)cc3O)n2/N=C/c2ccc(O)cc2O)cc1			2.33	4.91	1.76	3.73 µM	1.75 µM	3.81 µM	2.38	6.51 µM	2.32	6.73	2.02	5.35 µM	2.41	5.26	1.65	6.22 µM	2.04	5.51 µM
[C](#Cc1ccccc1)[Hg][C]#Cc1ccccc1	13.1	> 100 µM	35.5	> 100	24.3	53.7 µM	> 100 µM	> 100 µM	21.1	47.5 µM	> 100	> 100	> 100	> 100 µM	14.1	40.9	28.8	79.1 µM	20.8	44.8 µM
FC(F)(c1ccc2ncccc2c1)c1nnc2ccc(-c3ccncc3)nn12	53.3	> 100 µM	> 100	> 100	> 100	> 100 µM	19.3 µM	> 100 µM	18.3	> 100 µM	21.4	> 100	64.3	> 100 µM	> 100	> 100	61.9	> 100 µM	31	> 100 µM
COc1cc2ncn(-c3cc(OCc4ccccc4C(F)(F)F)c(C(=O)N(C)C)s3)c2cc1OC	> 25	> 25 µM	> 25	> 25	21.6	> 25 µM	4.58 µM	> 23.5 µM	6.66	> 23.9 µM	> 25	> 25	> 17	> 25 µM	> 25	> 25	7.02	> 17 µM	10.9	> 25 µM
O=[N+]([O-])c1cc(Cl)c2[nH]c3c(Cl)cc([N+](=O)[O-])cc3c2c1	0.124	> 100 µM	0.576	> 100	0.247	> 100 µM	0.15 µM	1.36 µM	0.0596	0.405 µM	0.244	> 27.1	0.345		0.431	> 100	0.254	> 100 µM	0.482	8.89 µM
COc1cc(C2SCCCCCCCCCCSC(c3ccc(O)c(OC)c3)SCCCCCCCCCCS2)ccc1O (stereo not drawn)		> 100 µM		> 100		> 100 µM		> 100 µM		> 100 µM		> 100		> 100 µM		> 100		> 100 µM		> 100 µM
Cc1[nH]nc(C(F)(F)F)c1N=NN(C)C		5.15 µM		> 100		20.6 µM		> 100 µM		23.5 µM		11.5		23 µM		34.1		> 100 µM		25.4 µM
CC1CCC2(NC1)OC1CC3C4CC=C5CC(O)CCC5(C)C4CCC3(C)C1C2C (stereo not drawn)		93.3 µM and 70.2 µM		> 100		65.1 µM and 50.4 µM	18.7 µM and 5.56 µM	38.5 µM and 14.5 µM		49.5 µM and 46.2 µM		> 100		51.3 µM and > 57.1 µM		> 100		49 µM and 48.9 µM		51.7 µM and 37 µM
CCCCCCCCOC(=O)CC[C@@H](C)[C@H]1CC[C@H]2[C@@H]3[C@H](OC(=O)CCN)C[C@@H]4C[C@H](OC(=O)CCN)CC[C@]4(C)[C@H]3C[C@H](OC(=O)CCN)[C@]12C	8.42	33.6 µM	1.95	3.93	3.45	12.7 µM	23.8 µM	48.1 µM	2.29	6.74 µM			17.2	37.8 µM	2.44	5.79	12.3	39.9 µM	2.44	7.9 µM
O=C(O)c1ccc(CI)cc1		45.8 µM		33.7		26.4 µM		35.3 µM		31 µM		36.4		34.8 µM		37.9		48 µM		37.6 µM
Cc1nc(-c2ccccc2)n2nc(NCCCN3CCOCC3)ncc12	> 25	> 25 µM	> 25	> 25	> 25	> 25 µM	6.5 µM	> 25 µM	10.6	> 25 µM	> 25	> 25	> 25	> 25 µM	> 25	> 25	> 25	> 25 µM	> 25	> 25 µM
CC(=O)Oc1ccc(C23c4ccccc4C2(OC(C)=O)c2cc(OC(C)=O)ccc23)cc1 (stereo not drawn)	2.29	6.66 µM	3.73	12.7	3.69	13.7 µM	34.8 µM	> 100 µM	5.01	20.3 µM	3.52	16.6	2.82	10.2 µM	39.7	> 100	2.22	7.45 µM	6	33.1 µM
S=c1snc2n1CCN2	42.2	> 100 µM	40.5	> 100	95.5	> 100 µM	65 µM	> 100 µM	> 100	> 100 µM	> 100	> 100	> 100	> 100 µM	65.9	> 100	0.85	37.4 µM	91.1	> 100 µM
CN(CCCCCl)P(=O)(OCCS(=O)(=O)CC(NC(=O)CCC(N)C(=O)O)C(=O)NC(C(=O)O)c1ccccc1)OCC1OC(n2ccc(N)nc2=O)C(F)(F)C1O (stereo not drawn)	0.901	> 78.1 µM	1.44	> 100	0.377	> 65.4 µM	0.943 µM	> 100 µM	0.379	8.63 µM	11.4	> 100	0.0664	> 62.8 µM	0.586	> 100	1.33	> 100 µM	14.2	> 100 µM
CC(=O)c1ccc2c(c1)C1C=CCC1[C@H](c1cc3c(cc1Br)OCO3)N2 (stereo partly drawn)	0.58	13.2 µM	0.448	> 29.2	1.46	> 31.1 µM	0.482 µM	2.14 µM	< 0.0385	0.479 µM	1.38	> 52.5	1.33	4.71 µM	0.653	13	1.74	> 47.4 µM	1.3	11.4 µM
NS(=O)(=O)c1ccc(-n2nc3c(c2-c2ccc(Cl)cc2)Cc2ccccc2-3)cc1	10.4	24.7 µM	1.88	4.48	13.7	26.9 µM	4.7 µM	19.1 µM	11.6	24.5 µM	17.1	33.5	19.6	44.8 µM	15.4	98.1	91	> 100 µM	14.8	30.1 µM
C=CCn1c(C)nc2ccc(Nc3nc(Nc4ccc(F)cc4)nc4ccccc34)cc21	1.85	4.57 µM	2.8	10.7	1.8	3.7 µM	4.36 µM	24.1 µM	0.585	6.97 µM			4.01	37.7 µM	3	13.3	1.7	4.23 µM	2.37	8.24 µM
COc1ccc(-c2ccncc2)cc1C(N)=O	> 25	> 25 µM	> 25	> 25	> 25	> 25 µM	> 22.8 µM	> 25 µM	> 25	> 25 µM	> 25	> 25	> 25	> 25 µM	> 25	> 25	> 25	> 25 µM	> 25	> 25 µM
CCC(O)c1ccc(Br)cc1NC(=O)c1cccc(Cl)c1 (stereo not drawn)	11.4	48.3 µM	26.6	99.6	12.5	> 100 µM	16.3 µM	54 µM	12.1	65.6 µM			23.4	> 100 µM	17.9	37.2	12.7	84.8 µM	18.8	> 100 µM
C[C@@H]1C[C@H](C)CN(S(=O)(=O)c2ccc3c(NO)c4ccc(S(=O)(=O)N5C[C@H](C)C[C@H](C)C5)cc4c(N=O)c3c2)C1	0.24	0.669 µM	0.0298	0.104	0.181	0.345 µM		> 1 µM	0.167	0.522 µM	0.128	0.269	0.302	> 1 µM	0.159	0.313	0.178	0.362 µM	0.0738	0.234 µM
COC(=O)C1C(O)CCC2CN3CCc4c([nH]c5ccccc45)C3CC21 (stereo not drawn)		> 100 µM		> 100		> 100 µM		> 100 µM		> 100 µM		> 100		> 100 µM		> 100		> 100 µM		> 100 µM
CC(C)c1c(-c2ccccc2)nc2c(C#N)c[nH]n2c1=O	24.2	67.7 µM	35.3	> 100	24.3	72.2 µM	13 µM	51.1 µM	7.85	49.6 µM	49.4	> 100	31.2	> 100 µM	33.9	> 100	25.2	87.6 µM	33	> 100 µM
CC[n+]1oc(C(=O)c2ccc(Cl)cc2)c(-c2ccccc2)c1-c1ccccc1.[Cl][Fe]([Cl])([Cl])[Cl]	19.6	54.2 µM	> 100	> 100	63.8	> 100 µM	22.2 µM	75.1 µM	27.1	62.9 µM	30.4	> 100	> 100	> 100 µM	41.8	> 100	0.462	35.1 µM	36.5	> 100 µM
COc1cc(F)c(F)c(Nc2ccc(I)cc2F)c1NS(=O)(=O)C1(C[C@H](O)CO)CC1	2.66	> 10 µM	0.0591	> 10	0.0158	0.172 µM	0.0936 µM	0.478 µM	0.189	1.68 µM	0.323	> 10	> 5.58	> 10 µM	0.0308	> 10	> 4.02	> 9.3 µM	0.217	> 9.46 µM
Cn1c(-c2c(N)n(Nc3cccc(Cl)c3)c3nc(C#N)c(C#N)nc23)nc2ccccc21	3.53	> 50 µM	7.94	> 50	4.59	14.9 µM	6.56 µM	16.6 µM	16.5	> 50 µM	0.839	7.45	0.837	14.1 µM			13.2	> 50 µM	6.47	17.7 µM
CCOC(=O)c1cc2cc3c4c(c2oc1=O)CCCN4CCC3		49.3 µM		> 100				79 µM		58 µM		80		72.9 µM		> 100		53.6 µM		69.2 µM
